Assay results from patent publication US8563540B2, “Pyrido[3,2-d]pyrimidine PI3K delta inhibitor compounds and methods of use” (Genetech, Inc., priority 2010, dated 2013).
pIC50: −log10 of the molar value.

Legend:
p110 alpha = target: T1, p110 alpha (Homo sapiens, UniProt P42336); assay: PI3K Isoform Inhibition Assay, p110 alpha (delta/alpha selectivity); details: ratio of biochemical IC50 values
T1 construct: purchased Upstate Group, Millipore; Dundee, UK
Method: (§1) PI3K enzymatic activity was assayed by measuring the amount of product phosphatidylinositol […] (PIP3) formed from substrate 4,5 phosphatidylinositol 4,5-phosphate (PIP2) using a fluorescence polarization displacement assay. The decrease in fluorescence polarization of a fluorescent PIP3 probe is measured as it is displaced from a PIP3-binding protein GRP-1 detector by PI3K-catalyzed product. […] The kinase reactions were initiated by the addition of 40 ng/mL p110α/p85α, 300 ng/mL p110β/p85α, 40 ng/mL p110γ, or 40 ng/mL […] (Upstate Group, Millipore; Dundee, UK), and 10 μM PIP2 (Echelon Biosciences) to the wells. […] After 60 minutes of incubation at room temperature to allow equilibration of labeled and unlabeled PIP3 binding, the parallel and perpendicular components of the fluorescence emissions from each sample were measured at an excitation wavelength of 530 nm and an emission wavelength of 590 nm using an Envision fluorescent plate reader with a rhodamine filter (PerkinElmer Life and Analytical Sciences; Wellesley, Mass.). The assay is capable of detecting 0.1-2.0 μM PIP3 product. The IC50 values were obtained by fitting the dose-dependent inhibition data to a 4-parameter equation using Assay Explorer software (MDL, San Ramon, Calif.).
(§2) The Formula I compound was serially diluted in 100% DMSO. The kinase reaction was incubated for 1 h at room temperature, and the reaction was terminated by the addition of PBS. IC50 values were subsequently determined using sigmoidal dose-response curve fit (variable slope).
The same protocol may be used to establish IC50 values for p110α (alpha) PI3K binding. […]

p110 delta = target: T2, p110 delta (Homo sapiens, UniProt O00329); assay: PI3K Isoform Inhibition Assay, p110 delta; format: biochemical; details: PI3K isoform inhibition assay of Example 901
T2 construct: purchased Upstate Group, Millipore; Dundee, UK
T2 sequence (O00329 whole entry, canonical isoform): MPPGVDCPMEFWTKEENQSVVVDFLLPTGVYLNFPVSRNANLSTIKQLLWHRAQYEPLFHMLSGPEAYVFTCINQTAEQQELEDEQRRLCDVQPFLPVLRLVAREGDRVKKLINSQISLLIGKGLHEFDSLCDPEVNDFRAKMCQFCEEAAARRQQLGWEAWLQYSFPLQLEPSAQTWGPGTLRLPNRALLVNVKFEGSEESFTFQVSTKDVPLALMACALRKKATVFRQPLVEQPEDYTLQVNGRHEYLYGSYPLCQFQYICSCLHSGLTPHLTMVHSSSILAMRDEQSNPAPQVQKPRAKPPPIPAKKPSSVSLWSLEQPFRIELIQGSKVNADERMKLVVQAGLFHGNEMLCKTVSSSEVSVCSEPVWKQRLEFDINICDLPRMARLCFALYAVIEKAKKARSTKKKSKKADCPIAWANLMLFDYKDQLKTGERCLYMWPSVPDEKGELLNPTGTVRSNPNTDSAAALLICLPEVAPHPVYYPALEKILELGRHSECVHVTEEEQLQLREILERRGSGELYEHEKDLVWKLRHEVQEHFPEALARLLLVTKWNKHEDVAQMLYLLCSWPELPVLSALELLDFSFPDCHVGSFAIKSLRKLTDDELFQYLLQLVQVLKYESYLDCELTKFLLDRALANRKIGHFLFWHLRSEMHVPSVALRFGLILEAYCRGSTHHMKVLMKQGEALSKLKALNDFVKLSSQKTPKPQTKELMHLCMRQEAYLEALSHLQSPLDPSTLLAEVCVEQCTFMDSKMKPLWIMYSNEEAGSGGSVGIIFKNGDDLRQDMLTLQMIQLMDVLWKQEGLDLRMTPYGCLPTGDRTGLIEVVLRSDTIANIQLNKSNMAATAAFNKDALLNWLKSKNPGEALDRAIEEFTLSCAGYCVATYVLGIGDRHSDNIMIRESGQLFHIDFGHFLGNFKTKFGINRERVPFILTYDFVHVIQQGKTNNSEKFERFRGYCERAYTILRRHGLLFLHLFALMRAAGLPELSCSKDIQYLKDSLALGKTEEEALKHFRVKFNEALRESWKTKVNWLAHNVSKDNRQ
T2 sequence (P27986 whole entry partner, canonical isoform): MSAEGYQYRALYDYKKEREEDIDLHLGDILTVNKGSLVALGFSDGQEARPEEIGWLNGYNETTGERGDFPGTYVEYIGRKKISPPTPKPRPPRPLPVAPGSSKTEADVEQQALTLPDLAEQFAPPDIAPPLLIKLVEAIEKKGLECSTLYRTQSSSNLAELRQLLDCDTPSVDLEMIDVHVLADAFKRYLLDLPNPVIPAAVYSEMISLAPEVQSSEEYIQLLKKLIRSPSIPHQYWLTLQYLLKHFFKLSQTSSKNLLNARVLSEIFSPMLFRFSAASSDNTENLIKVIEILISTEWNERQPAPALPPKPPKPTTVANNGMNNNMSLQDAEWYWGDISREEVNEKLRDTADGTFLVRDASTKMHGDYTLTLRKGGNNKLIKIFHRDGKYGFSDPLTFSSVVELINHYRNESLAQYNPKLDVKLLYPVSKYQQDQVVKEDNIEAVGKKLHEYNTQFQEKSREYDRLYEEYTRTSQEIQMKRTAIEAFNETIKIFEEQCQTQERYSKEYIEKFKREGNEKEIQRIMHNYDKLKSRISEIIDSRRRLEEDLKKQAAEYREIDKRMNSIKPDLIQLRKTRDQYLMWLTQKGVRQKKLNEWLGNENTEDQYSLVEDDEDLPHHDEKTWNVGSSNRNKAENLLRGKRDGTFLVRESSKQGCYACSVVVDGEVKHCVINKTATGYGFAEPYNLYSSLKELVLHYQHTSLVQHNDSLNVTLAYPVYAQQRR
Method: as §1, §2
The four Class I PI 3-kinases are cloned into baculovirus vectors as follows: […]

T1 sequence (P42336 whole entry, canonical isoform): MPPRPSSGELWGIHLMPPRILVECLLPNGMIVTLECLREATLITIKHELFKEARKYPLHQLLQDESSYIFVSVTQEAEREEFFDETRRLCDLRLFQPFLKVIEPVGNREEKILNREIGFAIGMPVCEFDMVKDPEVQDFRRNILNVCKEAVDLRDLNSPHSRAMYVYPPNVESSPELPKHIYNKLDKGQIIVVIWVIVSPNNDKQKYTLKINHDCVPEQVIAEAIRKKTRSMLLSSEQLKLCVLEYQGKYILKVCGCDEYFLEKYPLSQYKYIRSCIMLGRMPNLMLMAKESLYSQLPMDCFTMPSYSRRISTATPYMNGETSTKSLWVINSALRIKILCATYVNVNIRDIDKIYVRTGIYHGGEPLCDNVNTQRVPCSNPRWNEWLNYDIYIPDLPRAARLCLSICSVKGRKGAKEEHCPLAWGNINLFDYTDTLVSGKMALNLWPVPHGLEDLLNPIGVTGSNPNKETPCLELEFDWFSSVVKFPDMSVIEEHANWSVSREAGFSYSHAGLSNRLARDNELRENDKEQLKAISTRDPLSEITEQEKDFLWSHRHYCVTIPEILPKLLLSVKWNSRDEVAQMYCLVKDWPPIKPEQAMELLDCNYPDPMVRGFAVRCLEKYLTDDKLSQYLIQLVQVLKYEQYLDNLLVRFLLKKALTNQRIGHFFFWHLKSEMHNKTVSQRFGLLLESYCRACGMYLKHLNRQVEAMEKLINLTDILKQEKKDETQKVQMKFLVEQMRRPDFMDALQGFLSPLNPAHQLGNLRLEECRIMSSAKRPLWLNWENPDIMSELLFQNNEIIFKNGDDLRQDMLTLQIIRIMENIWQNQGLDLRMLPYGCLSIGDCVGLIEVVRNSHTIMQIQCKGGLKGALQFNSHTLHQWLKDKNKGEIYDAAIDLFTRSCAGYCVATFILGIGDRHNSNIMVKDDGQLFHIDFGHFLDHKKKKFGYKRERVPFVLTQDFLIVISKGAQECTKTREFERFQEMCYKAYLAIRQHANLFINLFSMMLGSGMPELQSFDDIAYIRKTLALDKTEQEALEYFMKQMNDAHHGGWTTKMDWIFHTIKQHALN
T1 sequence (P27986 whole entry partner, canonical isoform): as the sequence (P27986 whole entry partner, canonical isoform) above

Row | IC50 p110 alpha/IC50 p110 delta (p110 alpha) | pIC50 (p110 delta) | Compound
1 | 203 | 8.89 | CC(C)(C(N)=O)N1CCN(Cc2ccc3nc(-c4c(F)ccc5[nH]ccc45)nc(N4CCOCC4)c3n2)CC1 [Compound 121, 2-(4-((2-(5-fluoro-1H-indol-4-yl)-4-morpholinopyrido[3,2-d]pyrimidin-6-yl)methyl)piperazin-1-yl)-2-methylpropanamide]
2 | 15 | 8.27 | CC(C)(O)C1CCN(Cc2ccc3nc(-c4ccc(N)nc4)nc(N4CCOCC4)c3n2)CC1 [Compound 122, 2-(1-((2-(6-aminopyridin-3-yl)-4-morpholinopyrido[3,2-d]pyrimidin-6-yl)methyl)piperidin-4-yl)propan-2-ol]
3 | 37 | 8.29 | COC(=O)C(C)(C)N1CC(Cc2ccc3nc(-n4c(C(C)C)nc5ccccc54)nc(N4CCOCC4)c3n2)C1 [Compound 117, methyl 2-(3-((2-(2-isopropyl-1H-benzo[d]imidazol-1-yl)-4-morpholinopyrido[3,2-d]pyrimidin-6-yl)methyl)azetidin-1-yl)-2-methylpropanoate]
4 | 58 | 8.15 | CO[C@H](C)c1nc2ccccc2n1-c1nc(N2CCOCC2)c2nc(CN3CCC(C(C)(C)O)CC3)ccc2n1 [Compound 115, (R)-2-(1-((2-(2-(1-methoxyethyl)-1H-benzo[d]imidazol-1-yl)-4-morpholinopyrido[3,2-d]pyrimidin-6-yl)methyl)piperidin-4-yl)propan-2-ol]
5 | 58 | 7.44 | CC(C)(O)CNCc1ccc2nc(-c3c(F)ccc4[nH]ccc34)nc(N3CCOCC3)c2n1 [Compound 143, 1-((2-(5-fluoro-1H-indol-4-yl)-4-morpholinopyrido[3,2-d]pyrimidin-6-yl)methylamino)-2-methylpropan-2-ol]
6 | 10 | 7.65 | Cc1cc(-c2nc(N3CCOCC3)c3nc(CN4CCC(C(C)(C)O)CC4)ccc3n2)cnc1N [Compound 132, 2-(1-((2-(6-amino-5-methylpyridin-3-yl)-4-morpholinopyrido[3,2-d]pyrimidin-6-yl)methyl)piperidin-4-yl)propan-2-ol]
7 | 55 | 8.35 | CC(C)(C(N)=O)N1CCN(Cc2ccc3nc(-c4c[nH]c5ccccc45)nc(N4CCOCC4)c3n2)CC1 [Compound 123, 2-(4-((2-(1H-indol-3-yl)-4-morpholinopyrido[3,2-d]pyrimidin-6-yl)methyl)piperazin-1-yl)-2-methylpropanamide]
8 | 10.9 | 8.45 | CCc1nc2ccccc2n1-c1nc(N2CCOCC2)c2nc(CN3CC(N4CCNC(=O)C4)C3)ccc2n1 [Compound 134, 4-(1-((2-(2-ethyl-1H-benzo[d]imidazol-1-yl)-4-morpholinopyrido[3,2-d]pyrimidin-6-yl)methyl)azetidin-3-yl)piperazin-2-one]
9 | 22 | 7.62 | CC(C)(O)C1CCN(Cc2ccc3nc(-c4c[nH]c5ccccc45)nc(N4CCOCC4)c3n2)CC1 [Compound 133, 2-(1-((2-(1H-indol-3-yl)-4-morpholinopyrido[3,2-d]pyrimidin-6-yl)methyl)piperidin-4-yl)propan-2-ol]
10 | 257 | 8.94 | Fc1ccc2[nH]ccc2c1-c1nc(N2CCOCC2)c2nc(CN3CC(N4CCOCC4)C3)ccc2n1 [Compound 126, 4-(1-((2-(5-fluoro-1H-indol-4-yl)-4-morpholinopyrido[3,2-d]pyrimidin-6-yl)methyl)azetidin-3-yl)morpholine]
11 | 36 | 8.65 | CCc1nc2ccccc2n1-c1nc(N2CCOCC2)c2nc(CN3CC(N4CCOCC4)C3)ccc2n1 [Compound 131, 4-(1-((2-(2-ethyl-1H-benzo[d]imidazol-1-yl)-4-morpholinopyrido[3,2-d]pyrimidin-6-yl)methyl)azetidin-3-yl)morpholine]
